# Data reported in publication PMC4727990 (Bioorganic & medicinal chemistry letters, 2015).
# How the values were obtained:
# [1] = target: ASCT2; settings: read-out: apparent affinity; inhibitor of ASCT2; cited from earlier work
# [2] = target: T1, ASCT2 (Rattus norvegicus, UniProt D3ZJ25); assay: ASCT2-mediated 3H-glutamine uptake in C6 cells; assay type: cell-based
# T1 sequence (D3ZJ25 1-555): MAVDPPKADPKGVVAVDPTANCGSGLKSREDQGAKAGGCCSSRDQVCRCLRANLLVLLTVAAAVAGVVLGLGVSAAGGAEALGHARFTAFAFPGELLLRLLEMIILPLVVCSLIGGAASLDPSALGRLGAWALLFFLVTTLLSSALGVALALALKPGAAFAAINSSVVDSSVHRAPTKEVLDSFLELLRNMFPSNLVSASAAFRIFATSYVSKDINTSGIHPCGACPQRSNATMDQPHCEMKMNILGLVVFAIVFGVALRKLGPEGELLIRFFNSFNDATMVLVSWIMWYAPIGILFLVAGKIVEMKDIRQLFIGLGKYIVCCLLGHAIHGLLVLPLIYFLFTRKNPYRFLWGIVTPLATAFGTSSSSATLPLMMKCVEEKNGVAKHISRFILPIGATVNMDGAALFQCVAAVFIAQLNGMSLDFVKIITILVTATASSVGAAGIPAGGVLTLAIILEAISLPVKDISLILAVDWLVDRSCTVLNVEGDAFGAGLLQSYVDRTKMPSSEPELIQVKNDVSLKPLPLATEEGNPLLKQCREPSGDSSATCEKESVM
# [3] = tested on: ASCT2; settings: cited from earlier work
compound,measurement,setting,value
"N[C@@H](COC(=O)c1ccc(-c2ccccc2)cc1)C(=O)O [Compound 3, O-(4-phenylbenzoyl)-L-serine]",Ki,[1],30 µM
Cc1cccc(COc2ccccc2CN(CC[C@H](N)C(=O)O)Cc2ccccc2OCc2cccc(C)c2)c1 [Compound 17],IC50,[2],9 µM
N-(2-(morpholinomethyl)phenyl)-L-glutamine [Compound 2],improvement of activity against ASCT2 compared to GPNA,[3],three-fold improved activity
"N[C@@H](CCC(=O)Nc1ccc([N+](=O)[O-])cc1)C(=O)O [Compound 1, L-γ-glutamyl-p-nitroanilide]",potency against ASCT2,[3],modest potency in the low millimolar range
